Measured values published in the supplement of paper PMC10307832.

Tests used:
Experiment in all cases: relative viability (nuclei count vs DMSO), 5 days (fraction); higher = more cells survive
ChaGo-K-1 = system: ChaGo-K-1
Outline: (§1)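 After 5 days of treatment, lung cancer cells in 1536-well plates were fixed and stained in a single step (final 0.05% Triton X-100, 1% formaldehyde, 1 ug/ml Hoechst) and their nuclei counted on 4× images. Treatment had been applied by pin tool the day after seeding as one drug alone or as a fixed anchor-drug dose with five library-drug doses (not always all listed) in √10 steps. Relative viability is the nuclei count of treated wells divided by that of vehicle wells, and values are medians of duplicate plates.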

NCI-H2347 = system: NCI-H2347
Outline: as §1

NCI-H650 = system: NCI-H650
Outline: as §1

EPLC-272H = system: EPLC-272H
Outline: as §1

RERF-LC-KJ = system: RERF-LC-KJ
Outline: as §1

HOP-62 = system: HOP-62
Outline: as §1

NCI-H1793 = system: NCI-H1793
Outline: as §1

NCI-H1395 = system: NCI-H1395
Outline: as §1

HCC-827 = system: HCC-827
Outline: as §1

LOU-NH91 = system: LOU-NH91
Outline: as §1

NCI-H322M = system: NCI-H322M
Outline: as §1

SW 900 = system: SW 900
Outline: as §1

NCI-H2170 = system: NCI-H2170
Outline: as §1

NCI-H2228 = system: NCI-H2228
Outline: as §1

NCI-H647 = system: NCI-H647
Outline: as §1

NCI-H358 = system: NCI-H358
Outline: as §1

NCI-H441 = system: NCI-H441
Outline: as §1

NCI-H1755 = system: NCI-H1755
Outline: as §1

PC-3 [JPC-3] = system: PC-3 [JPC-3]
Outline: as §1

LXF-289 = system: LXF-289
Outline: as §1

NCI-H596 = system: NCI-H596
Outline: as §1

LCLC-103H = system: LCLC-103H
Outline: as §1

NCI-H23 = system: NCI-H23
Outline: as §1

NCI-H1651 = system: NCI-H1651
Outline: as §1

NCI-H2126 = system: NCI-H2126
Outline: as §1

Nc1cccc2c1CN(C1CCC(=O)NC1=O)C2=O (stereo not drawn) [Lenalidomide] + O=C(CCCCCCC(=O)Nc1ccccc1)NO [Vorinostat] (partner 1 µM)
relative viability (ChaGo-K-1; first compound 0.253 µM): 0.773
relative viability (ChaGo-K-1; first compound 0.8 µM): 0.753
relative viability (ChaGo-K-1; first compound 2.53 µM): 0.838
relative viability (ChaGo-K-1; first compound 8 µM): 0.694
relative viability (NCI-H2347; first compound 0.253 µM): 0.701
relative viability (NCI-H2347; first compound 0.8 µM): 0.611
relative viability (NCI-H2347; first compound 2.53 µM): 0.722
relative viability (NCI-H2347; first compound 8 µM): 0.448
relative viability (NCI-H650; first compound 0.253 µM): 0.492
relative viability (NCI-H650; first compound 0.8 µM): 0.446
relative viability (NCI-H650; first compound 2.53 µM): 0.59
relative viability (NCI-H650; first compound 8 µM): 0.322
relative viability (EPLC-272H; first compound 0.253 µM): 0.481
relative viability (EPLC-272H; first compound 2.53 µM): 0.296
relative viability (EPLC-272H; first compound 8 µM): 0.451
relative viability (RERF-LC-KJ; first compound 0.253 µM): 0.574
relative viability (RERF-LC-KJ; first compound 0.8 µM): 0.605
relative viability (RERF-LC-KJ; first compound 2.53 µM): 0.71
relative viability (RERF-LC-KJ; first compound 8 µM): 0.686
relative viability (HOP-62; first compound 0.253 µM): 0.56
relative viability (HOP-62; first compound 0.8 µM): 0.565
relative viability (HOP-62; first compound 2.53 µM): 0.662
relative viability (HOP-62; first compound 8 µM): 0.519
relative viability (NCI-H1793; first compound 0.253 µM): 0.739
relative viability (NCI-H1793; first compound 2.53 µM): 1.02
relative viability (NCI-H1793; first compound 8 µM): 0.35
relative viability (NCI-H1395; first compound 0.253 µM): 0.807
relative viability (NCI-H1395; first compound 2.53 µM): 0.736
relative viability (NCI-H1395; first compound 8 µM): 0.567
relative viability (HCC-827; first compound 0.253 µM): 1.04
relative viability (HCC-827; first compound 0.8 µM): 0.763
relative viability (HCC-827; first compound 2.53 µM): 0.985
relative viability (HCC-827; first compound 8 µM): 1.06
relative viability (LOU-NH91; first compound 0.253 µM): 0.928
relative viability (LOU-NH91; first compound 0.8 µM): 0.753
relative viability (LOU-NH91; first compound 2.53 µM): 0.98
relative viability (LOU-NH91; first compound 8 µM): 0.817
relative viability (NCI-H322M; first compound 0.253 µM): 0.934
relative viability (NCI-H322M; first compound 0.8 µM): 0.907
relative viability (NCI-H322M; first compound 2.53 µM): 0.962
relative viability (NCI-H322M; first compound 8 µM): 0.986
relative viability (SW 900; first compound 2.53 µM): 0.679
relative viability (SW 900; first compound 8 µM): 0.429
relative viability (NCI-H2170; first compound 0.253 µM): 0.883
relative viability (NCI-H2170; first compound 0.8 µM): 0.649
relative viability (NCI-H2170; first compound 2.53 µM): 0.889
relative viability (NCI-H2170; first compound 8 µM): 0.626
relative viability (NCI-H2228; first compound 0.253 µM): 0.451
relative viability (NCI-H2228; first compound 0.8 µM): 0.505
relative viability (NCI-H2228; first compound 2.53 µM): 1.09
relative viability (NCI-H2228; first compound 8 µM): 1.12
relative viability (NCI-H647; first compound 0.253 µM): 0.415
relative viability (NCI-H647; first compound 0.8 µM): 0.68
relative viability (NCI-H647; first compound 2.53 µM): 0.525
relative viability (NCI-H647; first compound 8 µM): 0.653
relative viability (NCI-H358; first compound 0.8 µM): 0.748
relative viability (NCI-H358; first compound 2.53 µM): 0.745
relative viability (NCI-H358; first compound 8 µM): 0.72
relative viability (NCI-H441; first compound 0.253 µM): 0.77
relative viability (NCI-H441; first compound 0.8 µM): 0.757
relative viability (NCI-H441; first compound 2.53 µM): 0.863
relative viability (NCI-H441; first compound 8 µM): 0.944
relative viability (NCI-H1755; first compound 0.253 µM): 0.78
relative viability (NCI-H1755; first compound 0.8 µM): 0.649
relative viability (NCI-H1755; first compound 2.53 µM): 0.728
relative viability (NCI-H1755; first compound 8 µM): 0.593
relative viability (PC-3 [JPC-3]; first compound 0.253 µM): 1.02
relative viability (PC-3 [JPC-3]; first compound 0.8 µM): 0.721
relative viability (PC-3 [JPC-3]; first compound 2.53 µM): 0.903
relative viability (PC-3 [JPC-3]; first compound 8 µM): 0.72
relative viability (LXF-289; first compound 0.253 µM): 0.812
relative viability (LXF-289; first compound 0.8 µM): 0.625
relative viability (LXF-289; first compound 2.53 µM): 0.798
relative viability (LXF-289; first compound 8 µM): 0.838
relative viability (NCI-H596; first compound 0.253 µM): 0.584
relative viability (NCI-H596; first compound 0.8 µM): 0.464
relative viability (NCI-H596; first compound 2.53 µM): 0.689
relative viability (NCI-H596; first compound 8 µM): 0.52
relative viability (LCLC-103H; first compound 0.253 µM): 0.761
relative viability (LCLC-103H; first compound 0.8 µM): 0.679
relative viability (LCLC-103H; first compound 2.53 µM): 0.818
relative viability (LCLC-103H; first compound 8 µM): 0.616
relative viability (NCI-H23; first compound 0.253 µM): 0.511
relative viability (NCI-H23; first compound 2.53 µM): 0.747
relative viability (NCI-H23; first compound 8 µM): 0.407
relative viability (NCI-H1651; first compound 0.253 µM): 0.624
relative viability (NCI-H1651; first compound 0.8 µM): 0.471
relative viability (NCI-H1651; first compound 2.53 µM): 0.589
relative viability (NCI-H1651; first compound 8 µM): 0.579
relative viability (NCI-H2126; first compound 0.253 µM): 0.771
relative viability (NCI-H2126; first compound 0.8 µM): 0.747
relative viability (NCI-H2126; first compound 2.53 µM): 0.832
relative viability (NCI-H2126; first compound 8 µM): 0.658
